Laboratory results: patent US20070059385A1, “Safe pharmaceutical composition for treating and preventing cancer and method of use” (priority 2005, published 2007)

Assay: Metabolism (organ and blood radioactivity) of [^3H]-HHT in P388 mice
Format: in vivo
Details: blood
Method: Animals: Adult DBA/2J male mice, 6 to 8 weeks old. All animals weighed approximately 25 g when used in experiments. Each member of which received identical dosed (i.p.) of HHT.
Tumor: P388 leukemic cells induced in mice by inoculation with L1210 or P388 leukemic cells ([…]).
After P388 induced in mice 5 days, 1 mg/kg of [^3H]-HHT (100 μC/mg) was injected to mice. Volumes were 0.01 ml/g body weight. […] The key data of HHT in metabolism process are determined counts per minute (CPM) of [^3H]-HHT in organs. CPM is determined by liquid scintillation counting (LSC). The methods of LSC combined with radioactive of [^3H]-HHT can be determined using a tracer of HHT in organs. After killed animals, organs and blood were obtained from P388 mice. Organs were weighted. 10 mg of organs were digested. 10 ml of scintillation solution (which containing […]) were added to digested solution and determined at LSC. Other processes are similar to the standard method.

COC(=O)C[C@](O)(CCCC(C)(C)O)C(=O)O[C@@H]1C(OC)=C[C@]23CCCN2CCc2cc4c(cc2[C@H]13)OCO4 [[^3H]-HHT]
[^3H]-HHT in blood (1 h): 1820 CPM | [^3H]-HHT in blood (2 h): 1650 CPM | [^3H]-HHT in blood (4 h): 1100 CPM | [^3H]-HHT in blood (8 h): 920 CPM | [^3H]-HHT in blood (16 h): 428 CPM | [^3H]-HHT in blood (24 h): 150 CPM
